Values quoted from earlier work in article PMC8113538, “Acute toxicity analysis of an inhibitor of BCL2, Disarib, in rats” (Scientific Reports, 2021).
Read-outs that look alike come from different tables or passages of the source.

Tests used:
platelets = test system: platelets; set-up: method as in PMID 26589495; conditions: clinical trials; cited from earlier work
[1] = cited from earlier work
[2] = cited from earlier work; for solubility in organic solvents: DMSO and Dimethylformamide
[3] = set-up: method as in EMA Venclyxto public assessment report, 16; conditions: monkey; ref EMA Venclyxto public assessment report, 16; cited from earlier work
[4] = set-up: method as in EMA Venclyxto public assessment report, 16; conditions: dogs; ref EMA Venclyxto public assessment report, 16; cited from earlier work
[5] = rats; cited from earlier work
circulating platelets = test system: circulating platelets; set-up: method as in PMID 26589495, PMID 21094089, PMID 17205078; conditions: preclinical studies; cited from earlier work

CC1(C)CCC(CN2CCN(c3ccc(C(=O)NS(=O)(=O)c4ccc(NCC5CCOCC5)c([N+](=O)[O-])c4)c(Oc4cnc5[nH]ccc5c4)c3)CC2)=C(c2ccc(Cl)cc2)C1 [ABT199]
toxic effect on platelets (platelets): no toxic effect on platelets | oral bioavailability (in words) [1]: orally bioavailable | solubility in organic solvents [2]: showed solubility in organic solvents such as DMSO and Dimethylformamide | solubility in absolute ethanol [2]: soluble in absolute ethanol | solubility in aqueous buffers [2]: minimal | half life [3]: 2.2 h | half life [4]: 12 h

CC1(C)CCC(c2ccc(Cl)cc2)=C(CN2CCN(c3ccc(C(=O)NS(=O)(=O)c4ccc(N[C@H](CCN5CCOCC5)CSc5ccccc5)c(S(=O)(=O)C(F)(F)F)c4)cc3)CC2)C1 [ABT263]
bioavailability [5]: ~ 20% | oral bioavailability (in words) [1]: orally bioavailable | plasma clearance [1]: low plasma clearance value | solubility in organic solvents [2]: showed solubility in organic solvents such as DMSO and Dimethylformamide | solubility in absolute ethanol [2]: soluble in absolute ethanol | solubility in aqueous buffers [2]: minimal | number of circulating platelets (circulating platelets): rapid and concentration-dependent decrease in the number of circulating platelets

CN(C)CC[C@H](CSc1ccccc1)Nc1ccc(S(=O)(=O)NC(=O)c2ccc(N3CCN(Cc4ccccc4-c4ccc(Cl)cc4)CC3)cc2)cc1[N+](=O)[O-] [ABT737]
oral bioavailability (in words) [1]: not orally bioavailable | plasma clearance [1]: low plasma clearance value | solubility in organic solvents [2]: showed solubility in organic solvents such as DMSO and Dimethylformamide | solubility in aqueous buffers [2]: minimal | number of circulating platelets (circulating platelets): rapid and concentration-dependent decrease in the number of circulating platelets
